Laboratory results taken from patent US12655130B2 (ASSEMBLY BIOSCIENCES, INC., priority 2020, dated 2026).
pEC50: −log10 of the molar value.

Tested on: HBV viral load (viral production from HepAD38 cells)
Assay: Activity of test compounds on viral production from HepAD38 cells (viral load by qPCR of HBV core sequence)
Assay type: cell-based
Settings: Hepatitis B virus, HePAD38, 120 h, viral load lowering, 5 days, qPCR of supernatant, read-out: VL HepAD38 EC50 range
Summary of the method: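 HepAD38 cells seeded at 50,000/well in tetracycline-free medium with 2% FBS, treated 5 days at 37 °C with compounds from 10 μM top concentration. Supernatant HBV DNA quantified by TaqMan qPCR of core sequence against HBV DNA standards, relative to DMSO wells; viability by CellTiter-Glo; EC50/CC50 by four-parameter logistic fit.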

SMILES	pEC50
CCC(O)COc1cc(C2(O)CC3CC(c4ncn(C)c4C(=O)Nc4ccc(F)c(Cl)c4)CC3C2)n(C)n1 (centres unmarked) [Example 203, N-(3-Chloro-4-fluorophenyl)-4-(5-hydroxy-5-(3-(2-hydroxybutoxy)-1-methyl-1H-pyrazol-5-yl)octahydropentalen-2-yl)-1-methyl-1H-imidazole-5-carboxamide]	> 8.00
CCn1cc(C2(O)CC3CC(c4ncn(C)c4C(=O)Nc4ccc(F)c(Cl)c4)CC3C2)c(C(F)F)n1 (centres unmarked) [Example 162, N-(3-Chloro-4-fluorophenyl)-4-(5-(3-(difluoromethyl)-1-ethyl-1H-pyrazol-4-yl)-5-hydroxyoctahydropentalen-2-yl)-1-methyl-1H-imidazole-5-carboxamide]	> 8.00
CC(=O)Nc1cc(C2(O)CC3CC(c4ncn(C)c4C(=O)Nc4ccc(F)c(Cl)c4)CC3C2)n(C(C)C)n1 (centres unmarked) [Example 166, 4-(5-(3-Acetamido-1-isopropyl-1H-pyrazol-5-yl)-5-hydroxyoctahydropentalen-2-yl)-N-(3-chloro-4-fluorophenyl)-1-methyl-1H-imidazole-5-carboxamide]	> 8.00
CCn1nc(N)cc1C1(O)CC2CC(c3ncn(C)c3C(=O)Nc3ccc(F)c(Cl)c3)CC2C1 (centres unmarked) [Example 76]	> 8.00
Cn1cc(F)c(C2(O)CC3CC(c4ncn(C)c4C(=O)Nc4ccc(F)c(Cl)c4)CC3C2)n1 (centres unmarked) [Example 136, N-(3-chloro-4-fluorophenyl)-4-(5-(4-fluoro-1-methyl-1H-pyrazol-3-yl)-5-hydroxyoctahydropentalen-2-yl)-1-methyl-1H-imidazole-5-carboxamide]	> 8.00
CCn1nc(C(F)F)cc1C1(O)CC2CC(c3ncn(C)c3C(=O)Nc3ccc(F)c(Cl)c3)CC2C1 (centres unmarked) [Example 152, N-(3-Chloro-4-fluorophenyl)-4-(5-(3-(difluoromethyl)-1-ethyl-1H-pyrazol-5-yl)-5-hydroxyoctahydropentalen-2-yl)-1-methyl-1H-imidazole-5-carboxamide]	> 8.00
Cn1cc(C2(O)CC3CC(c4ncn(C)c4C(=O)Nc4ccc(F)c(Cl)c4)CC3C2)c(C(F)(F)F)n1 (single isomer, unassigned) [Example 114, N-(3-Chloro-4-fluorophenyl)-4-(5-hydroxy-5-(1-methyl-3-(trifluoromethyl)-1H-pyrazol-4-yl)octahydropentalen-2-yl)-1-methyl-1H-imidazole-5-carboxamide]	> 8.00
CNc1nc(C2CC3CC(=O)CC3C2)c(C(=O)Nc2ccc(F)c(Cl)c2)n1C (centres unmarked) [Example 29, N-(3-Chloro-4-fluorophenyl)-1-methyl-2-(methylamino)-4-(5-oxooctahydropentalen-2-yl)-1H-imidazole-5-carboxamide]	7.30 to 8.00
CC(C)n1cc(C2(O)CC3CC(c4ncn(C)c4C(=O)Nc4ccc(F)c(Cl)c4)CC3C2)c(C(F)(F)F)n1 (centres unmarked) [Example 157, N-(3-Chloro-4-fluorophenyl)-4-(5-hydroxy-5-(1-isopropyl-3-(trifluoromethyl)-1H-pyrazol-4-yl)octahydropentalen-2-yl)-1-methyl-1H-imidazole-5-carboxamide]	> 8.00
Cn1cnc(C2CC3CC(O)(c4cc(NS(C)(=O)=O)nn4C)CC3C2)c1C(=O)Nc1ccc(F)c(Cl)c1 (centres unmarked) [Example 198, N-(3-Chloro-4-fluorophenyl)-4-(5-hydroxy-5-(1-methyl-3-(methylsulfonamido)-1H-pyrazol-5-yl)octahydropentalen-2-yl)-1-methyl-1H-imidazole-5-carboxamide]	7.30 to 8.00
Cn1cnc(C2CC3CC(O)(c4cc(C(C)(C)O)nn4C)CC3C2)c1C(=O)Nc1ccc(F)c(Cl)c1 (centres unmarked) [Example 59, N-(3-Chloro-4-fluorophenyl)-4-(5-hydroxy-5-(3-(2-hydroxypropan-2-yl)-1-methyl-1H-pyrazol-5-yl)octahydropentalen-2-yl)-1-methyl-1H-imidazole-5-carboxamide]	> 8.00
Cn1cnc(C2CC3CC(O)(c4c(C(F)(F)F)cnn4C)CC3C2)c1C(=O)Nc1ccc(F)c(Cl)c1 (centres unmarked) [Example 99, N-(3-chloro-4-fluorophenyl)-4-(5-hydroxy-5-(1-methyl-4-(trifluoromethyl)-1H-pyrazol-5-yl)octahydropentalen-2-yl)-1-methyl-1H-imidazole-5-carboxamide]	> 8.00
CC(C)n1ncc(C2(O)CC3CC(c4ncn(C)c4C(=O)Nc4ccc(F)c(Cl)c4)CC3C2)c1C(F)(F)F (centres unmarked) [Example 158, N-(3-Chloro-4-fluorophenyl)-4-(5-hydroxy-5-(1-isopropyl-5-(trifluoromethyl)-1H-pyrazol-4-yl)octahydropentalen-2-yl)-1-methyl-1H-imidazole-5-carboxamide]	> 8.00
Cn1cc(C2(O)CC3CC(c4nc(Cl)n(C)c4C(=O)Nc4ccc(F)c(Cl)c4)CC3C2)c(C(F)(F)F)n1 (centres unmarked) [Example 110, 2-Chloro-N-(3-chloro-4-fluorophenyl)-4-(5-hydroxy-5-(1-methyl-3-(trifluoromethyl)-1H-pyrazol-4-yl)octahydropentalen-2-yl)-1-methyl-1H-imidazole-5-carboxamide]	> 8.00
Cn1cnc(-c2ccc(C3CCC(c4ncn(C)c4C(=O)Nc4ccc(F)c(Cl)c4)C3)cc2)c1 (centres unmarked) [Example 14, N-(3-Chloro-4-fluorophenyl)-1-methyl-4-(3-(4-(1-methyl-1H-imidazol-4-yl)phenyl)cyclopentyl)-1H-imidazole-5-carboxamide]	> 8.00
CC(=O)c1nn(C)cc1C1(O)CC2CC(c3ncn(C)c3C(=O)Nc3ccc(F)c(Cl)c3)CC2C1 (centres unmarked) [Example 183, 4-(5-(3-Acetyl-1-methyl-1H-pyrazol-4-yl)-5-hydroxyoctahydropentalen-2-yl)-N-(3-chloro-4-fluorophenyl)-1-methyl-1H-imidazole-5-carboxamide]	7.30 to 8.00
CC(C)n1nc(NCC(C)(C)O)c(F)c1C1(O)CC2CC(c3ncn(C)c3C(=O)Nc3ccc(F)c(Cl)c3)CC2C1 (centres unmarked) [Example 216, N-(3-Chloro-4-fluorophenyl)-4-(5-(4-fluoro-3-((2-hydroxy-2-methylpropyl)amino)-1-isopropyl-1H-pyrazol-5-yl)-5-hydroxyoctahydropentalen-2-yl)-1-methyl-1H-imidazole-5-carboxamide]	> 8.00
CCn1nccc1C1(O)CC2CC(c3ncn(C)c3C(=O)Nc3ccc(F)c(Cl)c3)CC2C1 (centres unmarked) [Example 119, N-(3-chloro-4-fluorophenyl)-4-(5-(1-ethyl-1H-pyrazol-5-yl)-5-hydroxyoctahydropentalen-2-yl)-1-methyl-1H-imidazole-5-carboxamide]	> 8.00
CC(C)n1cc(Cl)c(C2(O)CC3CC(c4ncn(C)c4C(=O)Nc4ccc(F)c(Cl)c4)CC3C2)n1 (centres unmarked) [Example 154, 4-(5-(4-Chloro-1-isopropyl-1H-pyrazol-3-yl)-5-hydroxyoctahydropentalen-2-yl)-N-(3-chloro-4-fluorophenyl)-1-methyl-1H-imidazole-5-carboxamide]	> 8.00

Same assay, conditions: read-out: VL HepAD38 EC50 range, viral load lowering, 5 days, qPCR of supernatant

SMILES	pEC50
O=C1CC2CC(c3nc4n(c3C(=O)Nc3ccc(F)c(Cl)c3)CCCC4)CC2C1 (centres unmarked) [Example 40, 2-[-5-Oxo-2,3,3a,4,6,6a-hexahydro-1H-pentalen-2-yl]-N-(3-chloro-4-fluorophenyl)-5,6,7,8-tetrahydroimidazo[1,2-a]pyridine-3-carboxamide]	6.30 to 7.30
